Results as given in US20240350436A1, “METHODS FOR HAIR GROWTH” (THE REGENTS OF THE UNIVERSITY OF MICHIGAN, priority 2021, published 2024).

How the values were obtained:
[1] = tested on: Male and female Balb/cJ mice; experiment: Hair regrowth on shaved dorsal skin of mice after topical treatment; format: in vivo
Protocol: Hair regrowth was monitored daily. […] The hair length was measured by digital pachymeter.
Drug administration bpV(pic) (Sigma Aldrich, San Louis, MO, USA) was reconstituted in sterile Milli-Q water. bpV(pic) was also used to prepare a 10 μM bpV(pic) gel using 2% carmellose gel base (vehicle). bpV(pic) or vehicle gel was topically applied to the skin twice a day.
The dorsal skin of male and female mice was shaved and treated with vehicle or bpV (pic) topically, twice a day for 21 days (FIG. 1A).
The dorsal skin of male and female mice was shaved and treated with vehicle or SF1670 (N-(9,10-Dioxo-9,10-dihydro-phenanthren-2-yl)-2,2-dimethylpropionamide, N-(9,10-dihydro-9,10-dioxo-2-phenanthrenyl)-2,2-dimethyl-propanamide) topically, twice a day for 5 weeks. Hairs were collected once a week and measured using a millimeter (mm) as the measurement unit.

hair follicles = details: skin samples of treated mice, H&E (FIG. 2A)
Protocol: (§1) Skin samples were taken from treated and vehicle control mice and stained to evaluate skin histomorphology. Hair follicle cycle was evaluated by morphology and divided into 3 phases: growth phase (anagen); regression phase (catagen); and telogen. […] Proliferative cells in the hair follicle (follicular) and interfollicular epidermis (Interfollicular) were quantified for the identified timepoints.

[2] = tested on: proliferative cells in the hair follicle and interfollicular epidermis; details: after 10 days, BrdU positive cells per field
Protocol: BrdU labeling and cell proliferation BrdU (10 mg/ml) was injected in mice via IP two hours previous to the euthanasia. Tissue was collected and processed. The tissue was placed on slides and deparaffinized in xylene substitute and hydrated in descending grades of ethanol. Antigen retrieval was performed by HCL at 37° C. for 1 hour. Anti-BrdU (1:200, Novus Biologicals, Centennial, CO) was incubated overnight at 4° C., followed by secondary antibody conjugated with Alexa 488 incubation and counterstaining with Hoechst 33342. All slides were mounted using Fluoroshield. For quantification, ten fields were captured at a magnification of x400. The images were analyzed using ImageJ (NIH, Bethesda, MD, USA), and the proliferation was expressed as the number of positive cells per field.
as §1

hair follicle stem cells = details: treated mice, FACS (FIGS. 3B-3C)
Protocol: (§2) Flow cytometry analysis Isolation of skin single-cell suspension. Briefly, the subcutis underlying the dorsal skin was removed, and the epithelial cell layer was trypsinized for 2 hours at 37° C. Epithelial cell suspensions were filtered through 70 μm mesh filters (BD Bioscience, San Jose, CA, USA) to achieve a single cell suspension. Cells were maintained on ice. Immunofluorescence staining for CD34-FITC and CD49f-P.E./Cye5 primary antibodies (BD Pharmingen, San Jose, CA, USA) was performed to detected hair follicle stem cells. Antibodies were incubated with the cells for 30 minutes at 4° C. after cells were incubated with FcR blocking reagent (Miltenyi Biotec, Bergisch Gladbach, Germany). Human epidermal keratinocytes (HEK) (Cell Applications, Inc., San Diego, CA) were cultured in Epi-Vita Growth Medium (Cell Applications, Inc., San Diego, CA) and maintained at 37° C. with 5% of CO2 in a humidified incubator. Human epidermal keratinocytes (HEK) were cultured in a monolayer following instructions for culture of primary cells and received BpV(pic) or vehicle for 48 hrs. Treated cells were trypsinized and stained for CD44-APC (BD Pharmingen, San Jose, CA, USA) and Aldefluor kit (StemCell Technologies, Durham, NC, USA) according to the manufacturer's instructions to detected aldehyde dehydrogenase (ALDH) enzymatic activity. […]

[3] = tested on: Human epidermal keratinocytes (HEK); details: HEK monolayer, 48 hrs treatment (FIG. 3D)
Protocol: as §2

Row | Compound | hair regrowth (hair length) compared to vehicle control ([1]; topically twice a day for 5 weeks, hairs measured once a week (FIG. 4)) | hair follicle cycle phase by morphology (hair follicles) | hair regrowth (hair length) in comparison to the vehicle control ([1]; 10 μM gel topically twice a day for 21 days, shaved dorsal skin, all subjects (FIG. 1B)) | proliferative cells in the hair follicle (follicular) versus vehicle control [2] | proliferative cells in the interfollicular epidermis versus vehicle control [2] | number of hair follicle stem cells compared to vehicle control (hair follicle stem cells) | stem cell number in human stem cells compared to vehicle control [3]
1 | CC(C)(C)C(=O)Nc1ccc2c(c1)C(=O)C(=O)c1ccccc1-2 [SF1670, N-(9,10-Dioxo-9,10-dihydro-phenanthren-2-yl)-2,2-dimethylpropionamide] | faster hair regrowth |  |  |  |  |  | 
2 | O=C([O-])c1ccccn1.[K+].[K+].[O-2].[O-][O-].[O-][O-].[V+5] [bpV(pic), dipotassium bisperoxo(pyridine-2-carboxyl)oxovanadate] |  | anagen phase | induced hair regrowth | increased | increased | increased | confirmed
